Data from article PMC5322802 (Biochemistry, 2016).
Read-outs that look alike come from different tables or passages of the source.

Columns and labels:
FABP1 [1] = conditions: known Kd value, cited from earlier work
FABP1 [2] = molecular target: T1, FABP1 (Mus musculus, UniProt P12710); experiment: cis-parinaroyl-CoA displacement from FABP1; format: binding, murine; conditions: for fold stronger binding by FABP1 as compared to FABP3, FABP5, and FABP7: different displacement assays; for fold weaker binding to FABP1 than OEA: cis-parinaroyl-CoA displacement Kis; for Ki: displacement of FABP1-bound cis-parinaroyl-CoA (footnote a), 24°C, mean ± SEM, n=5, ND = no significant displacement
T1 sequence (P12710 1-127): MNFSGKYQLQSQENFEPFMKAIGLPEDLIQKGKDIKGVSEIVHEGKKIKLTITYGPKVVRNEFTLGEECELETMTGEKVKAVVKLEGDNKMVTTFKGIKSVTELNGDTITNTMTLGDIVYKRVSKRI

HSP70 = conditions: read-out: Kd of HSP70 binding AEA; cited from earlier work
ACBP = molecular target: T2, ACBP (Mus musculus, UniProt P31786); experiment: Direct binding to ACBP: intrinsic Tyr/Trp fluorescence; set-up: species or system murine; conditions: ACBP 500nM
T2 sequence (P31786 1-87): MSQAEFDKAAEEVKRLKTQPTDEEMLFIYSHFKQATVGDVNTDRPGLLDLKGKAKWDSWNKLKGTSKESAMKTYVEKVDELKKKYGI

FABP1 [3] = molecular target: T1, FABP1; experiment: ANS displacement from FABP1; format: binding, murine
FABP1 [4] = molecular target: T1, FABP1; experiment: Direct binding to FABP1: quenching of intrinsic Tyr fluorescence; set-up: species or system murine; conditions: FABP1 500nM, AEA 3μM
FABP1 [5] = molecular target: T1, FABP1; experiment: NBD-stearic acid displacement from FABP1; format: binding, murine; conditions: not shown
FABP1 [6] = molecular target: T1, FABP1; experiment: DAUDA displacement from FABP1; format: binding, murine; conditions: very high AEA concentration, e.g. 9 μM; not shown
[7] = in vivo; cited from earlier work
SCP2 [8] = molecular target: T3, SCP2 (Homo sapiens, UniProt P22307); experiment: NBD-stearic acid displacement from SCP2; format: binding; conditions: displacement of SCP2-bound NBD-stearic acid; SCP2 500nM, NBD-stearate 500nM
T3 sequence (P22307 21-143 isoform P22307-2 limits assumed): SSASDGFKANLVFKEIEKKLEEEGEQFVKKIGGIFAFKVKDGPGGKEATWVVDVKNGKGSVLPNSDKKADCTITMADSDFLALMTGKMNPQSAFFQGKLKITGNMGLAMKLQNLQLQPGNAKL

FABP4 = conditions: cited from earlier work
FABP1 [9] = molecular target: T1, FABP1; experiment: NBD-AEA displacement from FABP1; format: binding, murine; conditions: for displacement of / effect on FABP1-bound NBD-AEA (in words): FABP1 500nM, NBD-AEA 1μM
FABP1 [10] = molecular target: T1, FABP1; experiment: FABP1 binding of fluorescent ligands; set-up: species or system murine; conditions: read-out: Kd of FABP1 binding NBD-AEA; obtained herein (not shown)
SCP2 [11] = molecular target: T3, SCP2; experiment: Direct binding to SCP2: intrinsic Trp fluorescence
[12] = FABP1 500nM, cis-parinaroyl-CoA 500nM

CC/C=C/C=C\C=C/C=C/CCCCCCCC(=O)SCCNC(=O)CCNC(=O)[C@H](O)C(C)(C)COP(=O)(O)OP(=O)(O)OC[C@H]1O[C@@H](n2cnc3c(N)ncnc32)[C@H](O)[C@@H]1OP(=O)(O)O (relative stereo) [cis-parinaroyl-CoA]
Kd (FABP1 [1]; read-out: Kd1 of FABP1 binding cis-parinaroyl-CoA): 27 ± 4 nM | Kd (FABP1 [1]; read-out: Kd2 of FABP1 binding cis-parinaroyl-CoA): 66 ± 8 nM

CCCCC/C=C\C/C=C\C/C=C\C/C=C\CCCC(=O)OC(CO)CO [2-AG, 2-arachidonoylglycerol]
fold stronger binding by FABP1 as compared to SCP2 (FABP1 [2]): ≥ 3 fold | maximal displacement of FABP1-bound cis-parinaroyl-CoA (FABP1 [2]; [12]): about 50% | fold stronger binding by FABP1 as compared to FABP3, FABP5, and FABP7 (FABP1 [2]): 2–15 fold

CCCCC/C=C\C/C=C\C/C=C\C/C=C\CCCC(=O)NCCO [AEA, n-6 arachidonoylethanolamide]
Kd (HSP70): 3700 ± 500 nM | quenching of ACBP aromatic amino acid (Tyr) fluorescence emission (in words) (ACBP): neither OEA nor AEA quenched | displacement of FABP1-bound ANS (in words) (FABP1 [3]): did not displace | maximal displacement of FABP1-bound cis-parinaroyl-CoA (FABP1 [2]; [12]): about 50% | effect on FABP1 intrinsic Tyr fluorescence emission at 304 nm (in words) (FABP1 [4]): decreased | displacement of FABP1-bound NBD-stearic acid (in words) (FABP1 [5]): did not displace | displacement of FABP1-bound DAUDA (FABP1 [6]): 13%

CCCCC/C=C\C/C=C\C/C=C\C/C=C\CCCC(=O)Nc1ccc(O)cc1 [AM404]
maximal displacement of FABP1-bound cis-parinaroyl-CoA (FABP1 [2]; [12]): about 50%

CCCCC/C=C\C/C=C\C/C=C\C/C=C\CCCC(=O)O [ARA, arachidonic acid]
first-pass clearance by liver [7]: ~50%

CCc1c(-c2ccccc2)c(-c2ccccc2)nn1-c1ccccc1-c1cccc(OCC(=O)O)c1 [BMS309403]
Ki (SCP2 [8]): 5500 ± 500 nM | affinity of FABP4 for BMS309403 (FABP4): < 2 nM | fold stronger binding by FABP1 than FABP3 (FABP1 [2]; BMS309403): 10 fold | fold stronger binding by FABP1 than FABP5 (FABP1 [2]; BMS309403): 12–50 fold | maximal displacement of FABP1-bound cis-parinaroyl-CoA (in words) (FABP1 [2]; [12]): almost completely

C=C(C)[C@@H]1CCC(C)=C[C@H]1c1c(O)cc(CCCCC)cc1O [Cannabidiol, cannabidiol]
maximal displacement of FABP1-bound cis-parinaroyl-CoA (FABP1 [2]; [12]): about 50% | fold stronger binding by FABP1 as compared to FABP3, FABP5, and FABP7 (FABP1 [2]): 9–11 fold

CC/C=C\C/C=C\C/C=C\C/C=C\C/C=C\C/C=C\CCC(=O)NCCO [DHEA, n-3 docosahexaenoylethanolamide]
fold weaker binding to FABP1 than OEA (FABP1 [2]): 4–10 fold

CC/C=C\C/C=C\C/C=C\C/C=C\C/C=C\CCCC(=O)NCCO [EPEA, n-3 eicosapentaenoylethanolamide]
fold weaker binding to FABP1 than OEA (FABP1 [2]): 4–10 fold | Ki (FABP1 [2]): 390 ± 30 nM

CCCC(C)(C)c1ccc2c(c1)OC(C)(C)[C@@H]1CC=C(C)C[C@@H]21 [JWH-133]
Ki (FABP1 [9]; displacement of FABP1-bound NBD-AEA (footnote b), 24°C, mean ± SEM, n=5, ND = no significant displacement): did not displace | Ki (FABP1 [2]): did not displace

O=C(CCC/C=C\C/C=C\C/C=C\C/C=C\CCCCCNc1ccc([N+](=O)[O-])c2nonc12)NCCO [NBD-AEA]
Kd (FABP1 [10]): 700 ± 100 nM

CCCCCCCC/C=C\CCCCCCCC(=O)NCCO [OEA, oleoylethanolamide]
quenching of ACBP aromatic amino acid (Tyr) fluorescence emission (in words) (ACBP): neither OEA nor AEA quenched | Kd (SCP2 [11]): 390 nM | effect on SCP2 Trp fluorescence emission (in words) (SCP2 [11]; SCP2 500nM, OEA 1.4 μM): significantly increased

CC(=O)Nc1ccc(Nc2nc(-c3ccc(Cl)c(Cl)c3)cs2)cc1 [SCPI1]
Ki (SCP2 [8]): 680 ± 60 nM

CCCCCc1cc(O)c2c(c1)OC(C)(C)[C@@H]1CCC(C)=C[C@@H]21 [THC, Δ^9-tetrahydrocannabinol]
displacement of / effect on FABP1-bound NBD-AEA (in words) (FABP1 [9]): essentially all | maximal displacement of FABP1-bound cis-parinaroyl-CoA (FABP1 [2]; [12]): about 50%

CCCCC/C=C\C/C=C\C/C=C\C/C=C\CCCC(=O)Nc1ccc(O)cc1C [VDM11]
maximal displacement of FABP1-bound cis-parinaroyl-CoA (FABP1 [2]; [12]): about 50%

CCCCCCCC/C=C\CCCCCCCC(=O)SCCNC(=O)CCNC(=O)[C@H](O)C(C)(C)COP(=O)(O)OP(=O)(O)OC[C@H]1O[C@@H](n2cnc3c(N)ncnc32)[C@H](O)[C@@H]1OP(=O)(O)O [oleoyl-CoA]
quenching of ACBP aromatic amino acid (Tyr) fluorescence emission (in words) (ACBP): significantly quenched

SR-144528
displacement of / effect on FABP1-bound NBD-AEA (in words) (FABP1 [9]): increased the fluorescence
